Columns and labels:
Format in all cases: cell-based, Aplysia californica
EB3 association with MTs = test: Confocal imaging of EGFP-EB3 and microtubules in cultured neurons; conditions: EGFP-EB3-expressing neurons
From the text: (§1) Cell culture—Neurons B1 and B2 from buccal ganglia, MCn neurons from the metacerebral ganglion, sensory neurons from the pleuropeadal ganglion and LUQs from the abdominal ganglion of Aplysia californica were isolated and maintained in culture as previously described [Schacher and Proshansky, (1983); Spira et al., (1993, 1996)].
Expression constructs—Enzymes were obtained from (New England Biolabs, Beverly, Mass., USA). Each of the chimeric cDNAs of EGFP-EB3, EGFP-p50 and EGFP-MLIV was subcloned into the pCS2+ expression vector as described below [Rupp (1994); Turner and Weintraub (1994)]. For EGFP-EB the pCS2+ vector was cut with XhoI and SnaB. The insert (EGFP-EB3) was cut with NotI, fill in and cut with SalI. For EGFP-P50 the pCS2+ vector was cut with XbaI and the insert was cut with NheI and SpeI.
In-vitro transcription—5′-capped and 3′-polyadenylated mRNA was in vitro transcribed using recombinant in vitro transcription system (Promega, Madison, Wis., USA,). 10 μg of NotI-linearized pCS2+ was used as a template to transcribe capped mRNA. The transcription reaction was effected with RiboMax-sp6 kit (Promrga-P1280). Briefly, a reaction mixture was prepared by mixing 8 μl Transcription ×5 Buffer, 8 μl rNTPs mix containing 25 mM CTP, ATP, UTP and 12 mM GTP, 4 μl of 15 mM Cap analog (Roche 85846029), 1 μl of 40 units rRnasin (Promega N251A), 4 μl enzyme mix and 1-2 μg linear plasmid. Final reaction volume was compensated to 40 μl. […]
Mag-fura-2 Ca^2+ imaging—To study the local effect of elevated calcium levels on the distribution of a given fluorescentlly labled protein ratio imaging of the free intracellular calcium concentration was effected by mag fura-2. […] The fluorescence microscopy system consisted of a Zeiss Axiovert microscope equipped with a 75 W Xenon arc lamp, a Zeiss 40×0.75 NA Plan-Neofluar objective, 340±5 nm and 380±5 nm bandpass excitation filters set in a computer-controlled, Lambda10 position filter changer (Sutter, Novato Calif.), a dichroic mirror with a cut-off threshold of 505 nm and a 545±25 nm band pass emission filter. […]

[1] = tested on: actin bundles at the leading edge of growth cones; test: Confocal imaging of EGFP-actin bundles in growth cones of cultured neurons injected with mRNA encoding EGFP-actin
From the text: as §1
EGFP cDNA was amplified from pEGFP-N1 vector (Clontech, Palo-Alto, Calif., USA) by polymerase chain reaction (PCR) with two specific primers: 5′-GGCCATGGTGAGCAAGG-3′ and 5′-CTTGTACAGCTCGTCCATG-3′(Genset Oligos) (SEQ ID NOs: 1 and 2, respectively). The PCR product was digested with HindII and SmaI and subcloned into corresponding sites of Bluescript II SK (Stratagen, La Jolla, Calif.). Aplysia actin provided by Dr DesGrosiller (Montreal University, Canada) was amplified by PCR from Bluescript containing the actin cDNA using two specific primers: 5′-ATGTGTGACGACGATGTT-3′ and 5′-TTAGAAGCACTTGCGGTCG-3′ (SEQ ID NOs: 3 and 4, respectively) with SmaI and XbaI restriction sites at their 5′ ends. Following digestion, the PCR product was subcloned in-frame with EGFP into the previously prepared pBluescript-EGFP vector linearized with SmaI and XbaI. The EGFP-Actin fragment was then cut out from pBluescript with ClaI and XbaI and subcloned into corresponding sites of pCS2+ vector [Rupp (1994); Turner and Weintraub (1994) supra]. […]

microtubules = test: Confocal imaging of EGFP-tubulin labelled microtubules in axotomy-induced growth cone of cultured neurons
Method: mRNA microinjection—mRNA was injected into the cytoplasm of Aplysia neurons bathed in ASW 8-48 hours following plating. 0.5-5 μg/μl mRNA in 80 mM KCl was used for injection. Injection was performed by pressure using Medical System Corp microinjector inserted into the cell body under visual control. Approximately up to 10% of the cell's body volume was injected. […] Good penetration was indicated by a resting potential of >−35 mV and measuring a typical input resistance. At the end of the injection, the micropipette tip was pooled out gently of the neuron. Cells were imaged for protein expression 12-48 hours following injection.
Axotomy—Axonal transection was performed by applying pressure on the axon with the thin shaft of a micropipette under visual control, as previously described [Spira et al., 1993, 1996; Ziv and Spira, (1993)].

**Q.** For CCCC[C@@H](C=O)NC(=O)[C@H](CC(C)C)NC(=O)OCc1ccccc1 [calpeptin], which “effect on MTs and EB3 association with MTs” value (EB3 association with MTs) is on record?
**A.** induces milled dissociation of EB3 from the MTs

**Q.** What does the source list for C=C1[C@@H](C)[C@H]2[C@H](Cc3ccccc3)NC(=O)[C@]23OC(=O)/C=C/[C@H](O)CCC[C@@H](C)C/C=C/[C@H]3[C@@H]1O [cytochalasin B]?
**A.** effect on EGFP labeled actin bundles at the leading edge of growth cones ([1]; cultured B1 neuron, nine minutes following bath application of 2 mM): actin bundles disassembly and the formation of small actin aggregates within the collapsed growth cones and the axoplasm; depolymerisation of fluorescent actin bundles after application ([1]; growth cone formed after axotomy, FIGS. 3a-b): depolymerised within minutes

**Q.** C[C@H](CCC(=O)O)C[C@H](C)C[C@H](C)C(=O)/C=C(\O)[C@H](C)C[C@H](C)C/C=C/[C@@H](C)[C@@H](O)[C@@H](C)[C@@H](O)C[C@@H]1CC[C@@](C)([C@H]2CC[C@@](C)([C@@H](C)O)O2)O1 [ionomycin] was tested. Which “mimicry of the axotomy-induced MT depolymerization/repolymerization and vesicle trap process by local elevation of [Ca2+]i” value (EB3 association with MTs; local application) did it give?
**A.** able to mimic the process

**Q.** COC(=O)Nc1nc2ccc(C(=O)c3cccs3)cc2[nH]1 [nocodazole] was tested. Which “effect on EGFP-tubulin microtubules in growth cone lamellipodium” value (microtubules; bath application 5 mM for 5 min) did it give?
**A.** depolymerisation of most microtubules

**Q.** And the “effect on EGFP labelled microtubules within growth cone” value (microtubules; cultured B1 neuron, twenty three minutes following bath application of 5 mM)?
**A.** microtubules depolymerise

**Q.** What about the “effect on MTs and EB3 association with MTs” value (EB3 association with MTs) of the same compound?
**A.** induces MTs deplymerization and dissociation of EB3 from the MTs
